Experimental data from patent US20220153732A1, “PROTEIN SECRETION INHIBITORS” (KEZAR LIFE SCIENCES, priority 2019, published 2022).
Read-outs that look alike come from different tables or passages of the source.

What was measured:
Format in all cases: cell-based
[1] = tested on: PD1-ss+10aa/Gaussia Luciferase; test: Dox-Induced PD1-ss-Gluc Assay; conditions: 293FRT/TO cells, read-out: 24 hr Dox Inducible PD1ssGluc 293FRT/TO: Mean IC50
Protocol: (§1) Transfected cells were selected for resistance to the selectable markers Hygromycin and Blasticidin to create a stable cell line that contained the PD1-ss+10aa/Gaussia Luciferase cDNA insert whose expression was regulated under the T-REx™ system. The day before assay, cells were trypsinized and plated in 384-well tissue culture plates. The next day, compound dilutions in DMSO/media containing doxycycline were added to the wells and incubated at 37° C., 5% CO2.
(§2) For chemical structures that include one or more stereoisomers, but are illustrated without indicating stereochemistry, the assay data refers to a mixture of stereoisomers.

[2] = tested on: TNFα-FL/Gaussia Luciferase; test: Dox Induced TNFα-FL-Gluc Assay; conditions: 293FRT/TO cells, read-out: 24 hr Dox Inducible TNFaFLGluc 293FRT/TO: Mean IC50
Protocol: as §1, with “TNFα-FL/Gaussia” for “PD1-ss+10aa/Gaussia”, “T-RExTM” for “T-REx™”, “CO2. […] For chemical structures that include one or more stereoisomers, but are illustrated without indicating stereochemistry, the assay data refers to a mixture of stereoisomers.” for “CO2.”

[3] = tested on: HER3-ss+4aa/Gaussia Luciferase; test: Dox-Induced Her3-ss-Gluc Assay; conditions: 293FRT/TO cells, read-out: 24 hr Dox Inducible Her3(ss + 4)Gluc 293FRT/TO: Mean IC50
Protocol: as §1, with “HER3-ss+4aa/Gaussia” for “PD1-ss+10aa/Gaussia”
as §2

[4] = tested on: IL-2-FL/Gaussia Luciferase; test: Dox Induced IL2-FL-Gluc Assay; conditions: 293FRT/TO cells, read-out: 24 hr Dox Inducible IL2FLGIuc 293FRT/TO: Mean IC50
Protocol: as §1, with “IL-2-FL/Gaussia” for “PD1-ss+10aa/Gaussia”, “T-RExTM” for “T-REx™”, “CO2. […] For chemical structures that include one or more stereoisomers, but are illustrated without indicating stereochemistry, the assay data refers to a mixture of stereoisomers.” for “CO2.”

[5] = tested on: human multiple myeloma cell line NCI-H929; test: H929 Cell Viability Assay; conditions: read-out: 48 hr H929 Viability Celltiter-Glo: Mean EC50
Protocol: (§3) Plates were incubated at 37° C., 5% CO2 for 48 hours. After 48 hours, Celltiter-Glo® (Promega) was added to each well and luciferase signal was quantified using Tecan Infinite M1000 Pro for cell viability determination.
as §2

[6] = tested on: human multiple myeloma cell line U266B1; test: U266 Cell Viability Assay; conditions: read-out: 48 hr U266 Viability Celltiter-Glo: Mean EC50
Protocol: as §3, with “Cells were plated in 384-well tissue culture plates and treated with compound dilutions in DMSO/media. Plates” for “Plates”
as §2

[7] = 24 hr doxycycline induction, Gaussia luciferase signal
[8] = 48 hr, NCI-H929 cells, Celltiter-Glo
[9] = U-266, 48 hr, U266B1 cells, Celltiter-Glo

IC50 [1, 7] [nM]	IC50 [2, 7] [nM]	IC50 [3, 7] [nM]	IC50 [4, 7] [nM]	EC50 [5, 8] [nM]	EC50 [6, 9] [nM]	IC50 ([3]; 24 hr, doxycycline-induced) [nM]	SMILES	IC50 ([1]; 24 hr, doxycycline-induced) [nM]	IC50 ([2]; 24 hr, doxycycline-induced) [nM]	IC50 ([4]; 24 hr, doxycycline-induced) [nM]	EC50 ([5]; NCI-H929, 48 h) [nM]	EC50 ([6]; U-266, 48 h) [nM]
211	2510	471	835	19000	> 25000		O=C(Nc1nc([C@@H]2CC[C@@H](c3ccccc3)C2)cs1)c1cccn1Cc1ccncc1 (stereo in doubt) [Compound A292, N-(4-((1R,3R)-3-phenylcyclopentyl)thiazol-2-yl)-1-(pyridin-4-ylmethyl)-1H-pyrrole-2-carboxamide]					
				12400	> 25000	414	O=C(Nc1nc([C@H]2CC[C@@H](c3ccccc3)C2)cs1)c1cccn1Cc1ccncc1 (stereo in doubt) [Compound A305, N-(4-((1S,3R)-3-phenylcyclopentyl)thiazol-2-yl)-1-(pyridin-4-ylmethyl)-1H-pyrrole-2-carboxamide]	196	2180	657		
24	401	55	93	1880	> 25000		C[C@H](OC(C)(C)c1csc(NC(=O)c2cccn2Cc2ccncc2)n1)c1ccccc1 [Compound A1, (S)-N-(4-(2-(1-phenylethoxy)propan-2-yl)thiazol-2-yl)-1-(pyridin-4-ylmethyl)-1H-pyrrole-2-carboxamide]					
29	391	62	105	1610	22300		CC(OC(C)(C)c1csc(NC(=O)c2cccn2Cc2ccncc2)n1)c1cccc(Cl)c1 (stereo not drawn) [Compound A2, N-(4-(2-(1-(3-chlorophenyl)ethoxy)propan-2-yl)thiazol-2-yl)-1-(pyridin-4-ylmethyl)-1H-pyrrole-2-carboxamide]					
36	580	99	144	2910	> 25000		CC(OC(C)(C)c1csc(NC(=O)c2cccn2Cc2ccncc2)n1)c1ccccc1 (stereo not drawn) [Compound A3, N-(4-(2-(1-phenylethoxy)propan-2-yl)thiazol-2-yl)-1-(pyridin-4-ylmethyl)-1H-pyrrole-2-carboxamide]					
38	377	91	148	2770	> 25000		COc1cccc(C(C)OC(C)(C)c2csc(NC(=O)c3cccn3Cc3ccncc3)n2)c1 (stereo not drawn) [Compound A4, N-(4-(2-(1-(3-methoxyphenyl)ethoxy)propan-2-yl)thiazol-2-yl)-1-(pyridin-4-ylmethyl)-1H-pyrrole-2-carboxamide]					
43	810	102	145	2440	23900		CC(OC(C)(C)c1csc(NC(=O)c2cccn2Cc2ccncc2)n1)c1ccc(Cl)cc1 (stereo not drawn) [Compound A5, N-(4-(2-(1-(4-chlorophenyl)ethoxy)propan-2-yl)thiazol-2-yl)-1-(pyridin-4-ylmethyl)-1H-pyrrole-2-carboxamide]					
46	541	88	78	2170	6220		C[C@H](OC(C)(C)c1csc(NC(=O)c2cccn2CCCc2ccncc2)n1)c1ccccc1 [Compound A6, (S)-N-(4-(2-(1-phenylethoxy)propan-2-yl)thiazol-2-yl)-1-(3-(pyridin-4-yl)propyl)-1H-pyrrole-2-carboxamide]					
58	808	93	71	3850	> 25000		CC(C)(OCC1CCCCC1)c1csc(NC(=O)c2cccn2Cc2ccncc2)n1 [Compound A7, N-(4-(2-(cyclohexylmethoxy)propan-2-yl)thiazol-2-yl)-1-(pyridin-4-ylmethyl)-1H-pyrrole-2-carboxamide]					
58	420	174	165	3890	7870		CC(OC(C)(C)c1csc(NC(=O)c2cccn2Cc2ccncc2)n1)c1ccccc1Cl (stereo not drawn) [Compound A8, N-(4-(2-(1-(2-chlorophenyl)ethoxy)propan-2-yl)thiazol-2-yl)-1-(pyridin-4-ylmethyl)-1H-pyrrole-2-carboxamide]					
104	1620	202	197	9460	> 25000		CC(C)(OCc1ccccc1)c1csc(NC(=O)c2cccn2Cc2ccncc2)n1 [Compound A9, N-(4-(2-(benzyloxy)propan-2-yl)thiazol-2-yl)-1-(pyridin-4-ylmethyl)-1H-pyrrole-2-carboxamide]					
105	1580	195	158	15600	> 25000		CC(C)(OC1CCCCC1)c1csc(NC(=O)c2cccn2Cc2ccncc2)n1 [Compound A10, N-(4-(2-(cyclohexyloxy)propan-2-yl)thiazol-2-yl)-1-(pyridin-4-ylmethyl)-1H-pyrrole-2-carboxamide]					
115	2390	128	61	8690	> 25000		CC(C)OC(C)(C)c1csc(NC(=O)c2cccn2CCCc2ccncc2)n1 [Compound A11, N-(4-(2-isopropoxypropan-2-yl)thiazol-2-yl)-1-(3-(pyridin-4-yl)propyl)-1H-pyrrole-2-carboxamide]					
139	1760	338	566	18600	> 25000		O=C(Nc1nc(/C=C\c2ccccc2)cs1)c1cccn1Cc1ccncc1 [Compound A12, 1-(pyridin-4-ylmethyl)-N-(4-styrylthiazol-2-yl)-1H-pyrrole-2-carboxamide]					
> 25000	> 25000	> 25000	> 25000	> 25000			CC(C)OC(C)(C)c1csc(NC(=O)[C@@H]2CCCN2Cc2ccncc2)n1 [Compound A130, (S)-N-(4-(2-isopropoxypropan-2-yl)thiazol-2-yl)-1-(pyridin-4-ylmethyl)pyrrolidine-2-carboxamide]					
							CC(C)(C)c1csc(NC(=O)c2cc3cc(Cl)ccc3n2Cc2ccncc2)n1 [Compound B28, N-(4-(tert-butyl)thiazol-2-yl)-5-chloro-1-(pyridin-4-ylmethyl)-1H-indole-2-carboxamide]	> 25000	> 25000	> 25000	23400	> 25000
							CCc1nc(NC(=O)c2cc3cc(Cl)ccc3n2Cc2ccncc2)sc1C [Compound B29, 5-chloro-N-(4-ethyl-5-methylthiazol-2-yl)-1-(pyridin-4-ylmethyl)-1H-indole-2-carboxamide]	> 25000	> 25000	> 25000	> 25000	> 25000
